Experimental data taken from ChEMBL document CHEMBL3639094, “Organic compounds” (2014).

Each molecule was assayed against T1, Cholesteryl ester transfer protein (Homo sapiens, UniProt P11597) (assay: In Vitro Assay: CETP Activity Kit (#RB-RPAK) was purchased from Roar Biochemical, Inc. (New York, N.Y., USA). To each well of a 96-well NBS half-area plate (costar #3686), 1.2 ng/well of the donor solution, 1 uL of the acceptor solution and 5 uL compound solution diluted in 100% DMSO were added in a 38 uL of buffer containing 10 mM Tris, 150 mM NaCl and 2 mM EDTA, pH 7.4. Then, the plate was sealed with Themowell Sealers (costar #6524) and followed by a mixing on a plate shaker by MICROPLATE MIXER MPX-96 (IWAKI) at power 3 for 10 sec at room temperature. After 10-min incubation at 37C., the reaction was started by adding 5 uL of rhCETP solution (Cardiovascular Target, New York, N.Y., USA) and mixed on the plate shaker for 10 sec, then the fluorescence intensity at 0 min was measured by a ARVO SX (Perkin Elmerr, USA) at excitation wavelength of 465 nm and emission wavelength of 535 nm. After 120 min-incubation at 37C., fluorescence intensity was measured again.).
T1 sequence (P11597 whole entry): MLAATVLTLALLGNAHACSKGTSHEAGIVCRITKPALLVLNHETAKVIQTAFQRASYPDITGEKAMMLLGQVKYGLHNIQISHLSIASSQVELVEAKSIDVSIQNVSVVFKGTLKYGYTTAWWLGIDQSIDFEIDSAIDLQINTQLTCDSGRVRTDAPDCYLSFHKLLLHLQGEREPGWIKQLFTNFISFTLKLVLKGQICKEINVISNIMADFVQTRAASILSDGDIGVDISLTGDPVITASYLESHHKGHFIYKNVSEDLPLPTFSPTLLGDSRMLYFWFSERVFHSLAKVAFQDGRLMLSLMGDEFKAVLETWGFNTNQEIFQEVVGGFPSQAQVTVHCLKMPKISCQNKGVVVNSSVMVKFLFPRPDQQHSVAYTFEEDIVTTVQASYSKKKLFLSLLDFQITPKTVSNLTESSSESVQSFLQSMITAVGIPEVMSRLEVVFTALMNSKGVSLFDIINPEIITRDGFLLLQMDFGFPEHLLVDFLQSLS
Molecule `CC[C@@H]1C[C@H](N(Cc2cc(C(F)(F)F)cc(C(F)(F)F)c2)c2ncc(-c3cnn(C)c3)cn2)CN1c1nc(N2CCC(C(=O)O)CC2)ncc1Cl` has an IC50 of 0.077 µM. `CC[C@@H]1C[C@H](N(Cc2cc(C(F)(F)F)cc(C(F)(F)F)c2)c2ncc(-c3cnn(C)c3)cn2)CN1C(=O)OC(C)C` showed an IC50 of 0.023 µM. Work on `CC[C@@H]1C[C@H](N(Cc2cc(C(F)(F)F)cc(C(F)(F)F)c2)c2ncc(N3CCOCC3)cn2)CN1c1nc(N2CCC(C(=O)O)CC2)ncc1Cl` yielded an IC50 of 0.13 µM. `CC[C@@H]1C[C@H](N(Cc2cc(C(F)(F)F)cc(C(F)(F)F)c2)c2ncc(-c3cnn(C)c3)cn2)CN1C(=O)OCC1(C)COC1` gave an IC50 of 0.053 µM.
